From ChEMBL document CHEMBL5727769, “Tricyclic fused derivatives of 1-(cyclo)alkyl pyridin-2-one useful for the treatment of cancer” (2020)

Target: Bromodomain-containing protein 4 (Homo sapiens, UniProt O60885)
Test: AlphaLISA Assay: Compounds were diluted by step-down dilution method (final concentration of DMSO was 1%) and added to the wells of a 384 well opti plate at desired concentrations. 5 nM BDR4-BD1 enzyme (produced in-house) and 12 nM of biotinylated substrate were added to the wells, covered and incubated at room temperature (RT) for 1 h. At the end of 1 h 250 ng of GSH acceptor beads were added to the well and incubated for 1 h at RT; then 500 ng of streptavidin donor beads were added and incubated again for 1 h at RT. Plates were read in a Pherastar reader at 680 nm excitation and 570 nm emission

Structure (SMILES): CCNC(=O)CC1N=C(c2ccc(Cl)cc2)c2cc(OC)ccc2-c2cn(C)c(=O)cc21 (racemic)
- IC50: 1.6 nM
